Data from ChEMBL document CHEMBL4665865, “New series of isoxazole derivatives targeting EGFR-TK: Synthesis, molecular modeling and antitumor evaluation” (Bioorg Med Chem, 2020).
pIC50: −log10 of the molar value.

Key:
MCF7 = experiment: Antitumor activity against human MCF7 cells assessed as inhibition of cell viability by MTT assay; format: functional, cell-based
HCT-116 = experiment: Antitumor activity against human HCT-116 cells assessed as inhibition of cell viability by MTT assay; format: functional, cell-based
HepG2 = experiment: Antitumor activity against human HepG2 cells assessed as inhibition of cell viability by MTT assay; format: functional, cell-based
[1] = Lipophilicity, logP of the compound; format: physicochemical; conditions: octanol/water
[2] = molecular target: Epidermal growth factor receptor (Homo sapiens, UniProt P00533); experiment: Inhibition of EGFR-TK (unknown origin) relative to control
DNA topoisomerase 2-beta = DNA topoisomerase 2-beta (Homo sapiens, UniProt Q02880); experiment: Inhibition of Topoisomerase II beta (unknown origin) relative to control
Chain of DNA topoisomerase 2-beta (Q02880 whole entry): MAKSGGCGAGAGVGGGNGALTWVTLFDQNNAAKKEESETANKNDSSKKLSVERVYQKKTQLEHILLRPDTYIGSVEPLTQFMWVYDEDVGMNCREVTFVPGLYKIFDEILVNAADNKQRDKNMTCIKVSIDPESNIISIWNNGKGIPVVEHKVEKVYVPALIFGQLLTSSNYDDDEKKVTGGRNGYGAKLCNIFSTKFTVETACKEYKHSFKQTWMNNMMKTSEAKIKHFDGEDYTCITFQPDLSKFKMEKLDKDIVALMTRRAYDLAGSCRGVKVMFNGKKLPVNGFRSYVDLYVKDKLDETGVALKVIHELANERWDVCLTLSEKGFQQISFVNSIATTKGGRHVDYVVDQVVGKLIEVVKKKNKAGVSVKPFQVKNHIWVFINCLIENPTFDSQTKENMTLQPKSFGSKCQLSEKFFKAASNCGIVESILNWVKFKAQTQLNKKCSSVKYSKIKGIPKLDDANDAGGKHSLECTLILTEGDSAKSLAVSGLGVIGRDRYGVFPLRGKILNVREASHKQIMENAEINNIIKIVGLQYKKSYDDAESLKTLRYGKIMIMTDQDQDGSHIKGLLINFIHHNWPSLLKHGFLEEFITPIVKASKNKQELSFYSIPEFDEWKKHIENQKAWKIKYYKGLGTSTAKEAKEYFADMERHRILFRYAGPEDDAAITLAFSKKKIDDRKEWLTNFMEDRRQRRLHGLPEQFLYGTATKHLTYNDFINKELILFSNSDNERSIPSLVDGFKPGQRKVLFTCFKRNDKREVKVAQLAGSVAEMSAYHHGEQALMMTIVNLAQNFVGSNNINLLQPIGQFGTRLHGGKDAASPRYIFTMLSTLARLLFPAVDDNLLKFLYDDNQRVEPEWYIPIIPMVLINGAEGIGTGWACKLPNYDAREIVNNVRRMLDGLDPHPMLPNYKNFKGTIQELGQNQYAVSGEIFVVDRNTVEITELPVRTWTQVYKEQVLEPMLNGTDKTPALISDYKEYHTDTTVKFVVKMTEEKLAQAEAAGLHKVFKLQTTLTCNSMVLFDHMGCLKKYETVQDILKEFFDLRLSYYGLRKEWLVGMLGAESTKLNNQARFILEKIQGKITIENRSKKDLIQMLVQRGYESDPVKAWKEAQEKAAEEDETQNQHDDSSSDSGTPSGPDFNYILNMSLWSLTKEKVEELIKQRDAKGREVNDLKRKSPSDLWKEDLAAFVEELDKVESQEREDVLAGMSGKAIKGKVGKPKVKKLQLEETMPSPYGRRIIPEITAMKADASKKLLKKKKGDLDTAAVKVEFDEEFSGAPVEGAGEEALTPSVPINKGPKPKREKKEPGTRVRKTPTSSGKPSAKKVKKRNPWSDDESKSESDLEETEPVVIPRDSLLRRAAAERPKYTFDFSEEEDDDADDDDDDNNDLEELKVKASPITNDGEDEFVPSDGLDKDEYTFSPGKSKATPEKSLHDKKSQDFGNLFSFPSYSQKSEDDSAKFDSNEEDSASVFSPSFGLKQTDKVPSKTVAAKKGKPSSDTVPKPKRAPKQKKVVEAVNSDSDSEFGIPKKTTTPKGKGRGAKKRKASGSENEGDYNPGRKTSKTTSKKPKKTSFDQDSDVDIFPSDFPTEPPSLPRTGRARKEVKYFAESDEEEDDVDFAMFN

Chain of Epidermal growth factor receptor (P00533 whole entry): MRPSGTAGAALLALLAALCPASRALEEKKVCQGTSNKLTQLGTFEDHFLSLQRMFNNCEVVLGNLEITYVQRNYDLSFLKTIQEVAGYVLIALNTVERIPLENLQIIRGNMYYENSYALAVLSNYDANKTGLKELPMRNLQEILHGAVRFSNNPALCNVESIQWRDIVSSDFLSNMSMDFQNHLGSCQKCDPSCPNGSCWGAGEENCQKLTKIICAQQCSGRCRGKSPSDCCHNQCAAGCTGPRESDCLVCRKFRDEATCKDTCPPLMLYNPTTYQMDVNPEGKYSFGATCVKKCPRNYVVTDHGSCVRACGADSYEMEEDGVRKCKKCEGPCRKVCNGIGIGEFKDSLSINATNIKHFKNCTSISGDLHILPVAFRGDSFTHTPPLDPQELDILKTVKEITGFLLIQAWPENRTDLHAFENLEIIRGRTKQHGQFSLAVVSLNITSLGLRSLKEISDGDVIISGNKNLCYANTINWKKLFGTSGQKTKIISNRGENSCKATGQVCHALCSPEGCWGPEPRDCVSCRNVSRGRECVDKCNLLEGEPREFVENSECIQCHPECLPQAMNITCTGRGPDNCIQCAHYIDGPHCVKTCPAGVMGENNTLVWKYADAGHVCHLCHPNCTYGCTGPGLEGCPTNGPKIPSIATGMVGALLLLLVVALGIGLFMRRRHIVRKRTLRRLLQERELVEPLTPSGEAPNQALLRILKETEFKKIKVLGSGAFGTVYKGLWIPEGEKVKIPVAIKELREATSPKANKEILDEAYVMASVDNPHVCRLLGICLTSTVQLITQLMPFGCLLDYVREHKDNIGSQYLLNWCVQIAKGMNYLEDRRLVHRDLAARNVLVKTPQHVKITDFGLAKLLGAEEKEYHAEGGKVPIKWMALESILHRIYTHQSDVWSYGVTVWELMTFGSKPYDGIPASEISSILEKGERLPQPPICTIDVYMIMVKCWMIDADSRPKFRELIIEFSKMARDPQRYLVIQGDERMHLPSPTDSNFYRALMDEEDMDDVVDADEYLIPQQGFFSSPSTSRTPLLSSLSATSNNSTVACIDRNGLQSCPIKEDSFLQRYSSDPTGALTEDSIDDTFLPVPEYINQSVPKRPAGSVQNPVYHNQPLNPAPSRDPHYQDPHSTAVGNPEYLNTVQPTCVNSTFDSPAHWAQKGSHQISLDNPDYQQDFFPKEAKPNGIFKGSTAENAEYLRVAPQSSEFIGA

| SMILES | pIC50 (MCF7) | pIC50 (HCT-116) | pIC50 (HepG2) | logP [1] | pIC50 [2] | pIC50 (DNA topoisomerase 2-beta) |
| --- | --- | --- | --- | --- | --- | --- |
| CC(C)(C)c1cc(NC(=O)CCCl)no1 | 4.22 | 4.03 | 4.13 |  |  |  |
| CC(C)(C)c1cc(N2C(=O)c3c(Cl)c(Cl)c(Cl)c(Cl)c3C2=O)no1 | 4.05 | < 4.00 | < 4.00 |  |  |  |
| CC(C)(C)c1cc(NC(=O)CCl)no1 | 5.15 | 5.00 | 5.01 | 2.27 | 6.91 |  |
| Cc1cc(NC2=NC(=O)CS2)no1 | 4.83 | 4.68 | 4.62 | 0.24 | 7.09 |  |
| CCN1CCN(CC(=O)Nc2cc(C)on2)CC1 | 4.90 | 4.75 | 4.71 | 0.61 | 7.09 |  |
| Cc1cc(NC(=O)CCCl)no1 | 4.31 | 4.12 | 4.21 |  |  |  |
| CC(C)(C)c1cc(NC2=NC(=O)/C(=C\c3ccco3)S2)no1 | 4.37 | 4.18 | 4.17 |  |  |  |
| Cc1cc(NC(=O)CCN2CCN(Cc3ccccc3)CC2)no1 | 4.04 | < 4.00 | 4.05 | 1.54 |  |  |
| Cc1cc(NC(=O)CCN2CCN(C)CC2)no1 | 4.35 | 4.12 | 4.25 | 0.14 |  |  |
| Cc1cc(NC(=O)CCN2CCOCC2)no1 | 4.28 | 4.05 | 4.15 |  |  |  |
| Cc1ccc(/C=C2/SC(Nc3cc(C(C)(C)C)on3)=NC2=O)cc1 | 4.40 | 4.29 | 4.26 | 5.15 |  |  |
| CC(C)(C)c1cc(N2C(=O)c3c(Br)c(Br)c(Br)c(Br)c3C2=O)no1 | 4.19 | < 4.00 | 4.04 |  |  |  |
| CC(C)(C)c1cc(NC2=NC(=O)/C(=C\c3ccc4ccccc4c3)S2)no1 | 4.17 | 4.03 | 4.10 | 5.89 |  |  |
| CC(C)(C)c1cc(NC(=O)CN2CCN(Cc3ccccc3)CC2)no1 | 4.32 | 4.11 | 4.24 | 3.36 |  |  |
| Cc1cc(NC(=O)CN2CCN(c3ccccc3)CC2)no1 | 4.78 | 4.58 | 4.46 | 1.93 | 7.19 |  |
| COc1cccc2c1C(=O)c1c(O)c3c(c(O)c1C2=O)C[C@@](O)(C(=O)CO)C[C@@H]3O[C@H]1C[C@H](N)[C@H](O)[C@H](C)O1 [DOXORUBICIN] |  |  |  |  |  | 6.14 |
| CC(C)(C)c1cc(NC2=NC(=O)/C(=C\c3ccc(Cl)c(Cl)c3)S2)no1 | 4.49 | 4.20 | 4.36 |  |  |  |
| Cc1cc(N2C(=O)c3c(Br)c(Br)c(Br)c(Br)c3C2=O)no1 | < 4.00 | < 4.00 | < 4.00 |  |  |  |
| CCN1CCN(CCC(=O)Nc2cc(C(C)(C)C)on2)CC1 | 4.21 | 4.04 | 4.12 | 2.24 |  |  |
| CC(C)(C)c1cc(NC(=O)CCN2CCN(Cc3ccccc3)CC2)no1 | 4.26 | 4.07 | 4.08 | 3.26 |  |  |
| Cc1cc(NC(=O)CCN2CCN(c3ccccc3)CC2)no1 | 4.54 | 4.34 | 4.29 | 1.84 |  |  |
| Cc1cc(NC2=NC(=O)/C(=C\c3ccc4ccccc4c3)S2)no1 | < 4.00 | < 4.00 | < 4.00 | 4.16 |  |  |
| CN1CCN(CCC(=O)Nc2cc(C(C)(C)C)on2)CC1 | 4.13 | < 4.00 | < 4.00 | 1.86 |  |  |
| CC(C)(C)c1cc(NC(=O)CN2CCOCC2)no1 | 4.71 | 4.55 | 4.60 | 1.91 | 6.84 |  |

| SMILES | pIC50 (MCF7) | pIC50 (HCT-116) | pIC50 (HepG2) | logP [1] | pIC50 [2] | pIC50 (DNA topoisomerase 2-beta) |
| --- | --- | --- | --- | --- | --- | --- |
| Cc1cc(NC2=NC(=O)/C(=C\c3c(F)cccc3Cl)S2)no1 | 4.67 | 4.50 | 4.51 |  |  |  |
| Cc1cc(NC(=O)CCl)no1 | 4.98 | 4.88 | 4.95 | 0.55 | 6.97 |  |
| Cc1cc(NC(=O)CN2CCN(Cc3ccccc3)CC2)no1 | 4.35 | 4.14 | 4.30 | 1.63 |  |  |
| CC(C)(C)c1cc(NC2=NC(=O)/C(=C\c3c(F)cccc3Cl)S2)no1 | 4.15 | < 4.00 | 4.04 |  |  |  |
| CN1CCN(CC(=O)Nc2cc(C(C)(C)C)on2)CC1 | 4.25 | 4.10 | 4.19 | 1.96 |  |  |
| CC(C)(C)c1cc(NC2=NC(=O)/C(=C\c3ccc(Br)s3)S2)no1 | < 4.00 | < 4.00 | < 4.00 |  |  |  |
| CCN1CCN(CC(=O)Nc2cc(C(C)(C)C)on2)CC1 | 4.57 | 4.42 | 4.41 | 2.33 |  |  |
| CC(C)(C)c1cc(NC(=O)CCN2CCOCC2)no1 | 4.11 | < 4.00 | 4.03 |  |  |  |
| CC(C)(C)c1cc(NC(=O)CN2CCN(c3ccccc3)CC2)no1 | 4.77 | 4.61 | 4.55 | 3.66 | 7.18 |  |
| Cc1cc(NC2=NC(=O)/C(=C\c3ccc(-c4ccccc4)cc3)S2)no1 | < 4.00 | < 4.00 | < 4.00 | 4.78 |  |  |
| Cc1cc(NC2=NC(=O)/C(=C\c3ccc(Br)cc3)S2)no1 | 4.16 | 4.02 | 4.06 | 3.79 |  |  |
| CC(C)(C)c1cc(NC2=NC(=O)CS2)no1 | 5.03 | 4.94 | 4.74 | 1.97 | 6.82 |  |
| CC(C)(C)c1cc(NC(=O)CCN2CCN(c3ccccc3)CC2)no1 | 4.64 | 4.47 | 4.43 | 3.56 |  |  |
| Cc1cc(NC(=O)CN2CCOCC2)no1 | 4.09 | < 4.00 | < 4.00 | 0.19 |  |  |
| Cc1cc(NC(=O)CN2CCN(C)CC2)no1 | 4.19 | 4.05 | 4.20 | 0.23 |  |  |
| CCN1CCN(CCC(=O)Nc2cc(C)on2)CC1 | 4.34 | 4.16 | 4.28 | 0.51 |  |  |
| Cc1cc(N2C(=O)c3c(Cl)c(Cl)c(Cl)c(Cl)c3C2=O)no1 | < 4.00 | < 4.00 | < 4.00 |  |  |  |
| CC(C)(C)c1cc(NC2=NC(=O)/C(=C\c3ccc(Br)cc3)S2)no1 | 4.44 | 4.19 | 4.32 | 5.51 |  |  |
| Cc1cc(NC2=NC(=O)/C(=C\c3ccco3)S2)no1 | 4.52 | 4.23 | 4.38 |  |  |  |
| Cc1cc(NC2=NC(=O)/C(=C\c3ccc(Cl)c(Cl)c3)S2)no1 | 4.42 | 4.39 | 4.34 |  |  |  |
| CC(C)(C)c1cc(NC2=NC(=O)/C(=C\c3ccc(-c4ccccc4)cc3)S2)no1 | 4.23 | 4.06 | 4.07 | 6.5 |  |  |
| Cc1ccc(/C=C2/SC(Nc3cc(C)on3)=NC2=O)cc1 | < 4.00 | < 4.00 | < 4.00 | 3.43 |  |  |
| Cc1cc(NC2=NC(=O)/C(=C\c3ccc(Br)s3)S2)no1 | 4.62 | 4.44 | 4.48 |  |  |  |
